Source: publication PMC9519446, “Discovery of an Orally Active Benzoxaborole Prodrug Effective in the Treatment of Chagas Disease in Non-human Primates” (Nature microbiology, 2022)

Legend:
[1] = test system: wild-type and peptidase knockout T. cruzi epimastigotes and amastigotes; assay: LC-MS/MS analysis of intracellular AN15368 and AN14667 (uptake and conversion); format: cell-based, Trypanosoma cruzi; details: epimastigotes 10 uM, amastigotes 50 nM; WT vs CBP KO
Procedure: The cells were then pelleted and resuspended in 100 μL of PBS. The cell suspension was mixed with 200 μl of acetonitrile and centrifuged at 735 gfor 10 minutes at room temperature. After extraction, the supernatant was further diluted with methanol:water 30:70 (v/v) containing 0.4 nM internal standard (IS) AN14817 to a concentration within the calibration range. Each sample was diluted in triplicate to provide technical replicates and the diluted sample (10 μL) was injected for subsequent LC-MS/MS analysis.
LC-MS/MS analysis was performed on a Waters ACQUITY I-Class UPLC system coupled to a Xevo TQ-S triple quadrupole mass spectrometer. An ACQUITY UPLC BEH C18 column (130 Å, 1.7 μm, 2.1 mm x 50 mm) was used for chromatographic separation, and the column temperature was 40 °C. The mobile phase consisted of water (A) and methanol (B), both containing 0.1% (v/v) formic acid. The following gradient elution was performed at a flow rate of 0.4 mL/min: 0 – 0.5 min, 30% B; 0.5 – 3 min, 30 – 95% B; 3 – 4 min, 95% B; 4 – 4.1 min, 95 – 30% B; and 4.1 – 5 min, 30% B. The MS ionization was carried out in the positive electrospray ionization (ESI) mode with following conditions: capillary voltage = 1.50 kV; desolvation temperature = 500 °C; desolvation gas flow = 1000 L/h; and nebulizer gas pressure = 7.0 bar. […] Data were processed using TargetLynx v4.1 software (Waters).

[2] = NHP clinical observation, physical exams and reproductive follow-up
Procedure: Under light-anesthesia/sedation, peripheral blood samples were collected from each animal prior to treatment and at 7 time points following. Blood analysis (CBC and serum chemistry assays) and physical exams to evaluate the health of the study animals were performed on each animal prior to the beginning of the study and also at three time points during the treatment protocol (see Supplementary data).

[3] = test system: T. cruzi CL strain in Vero cells; assay: RNA-seq: parasite mRNA relative to host cell (Vero) mRNA; format: cell-based, Trypanosoma cruzi
Procedure: The drug concentration used for treatment was set at 5 times the IC50. Samples were collected at several time points for RNA extraction as previously described. rRNA-depleted RNA library construction and RNA sequencing using Illumina Nextseq 75PE was carried out by Georgia Genomics and Bioinformatics Core (GGBC, University of Georgia, Georgia). […] The mapping rate was quantified by HTseq v0.6.1 [51].

[4] = test system: T. cruzi of diverse genetic types (DTUs); assay: In vitro susceptibility of T. cruzi strains of diverse genetic types (DTUs); format: cell-based; details: Trypanosoma cruzi
Procedure: C57BL/6J mice were purchased from The Jackson Laboratory (Bar Harbor, ME), and B6.129S7-Ifngtm1Ts/J (IFN-gamma deficient) were bred in-house at the University of Georgia Animal Facility. The SKH-1 “hairless” mice backcrossed to C57BL/6 were a gift from Dr. Lisa DeLouise (University of Rochester). All the animals were maintained in the University of Georgia Animal Facility under specific pathogen–free conditions at 22°C, 50% humidity and in a 12:12 hs light:dark cycle. Male and female mice of 6 to 9 weeks of age were used. All mouse experiments were carried out in strict accordance with the Public Health Service Policy on Humane Care and Use of Laboratory Animals and Association for Assessment and Accreditation of Laboratory Animal Care accreditation guidelines. The protocol was approved by the University of Georgia Institutional Animal Care and Use Committee. […] Parasites genotypes were determined as previously described.
The in vitro anti-T. cruzi amastiogote activity assay was performed and optimized based on the protocol described previously. The change in tdTomato fluorescence intensity was determined as a measurement of growth over 72 hours of culture. For assaying drug effects on extracellular amastigotes, trypomastigotes were collected from infected Vero cell cultures and converted in acidic media as previously described. Amastigotes (50,000/well) were incubated with 2-fold serial dilutions of compounds for 48 hours. The ATP production was used as an indication of growth in this case, and was measured by ATPlite Luminescence ATP Detection Assay System (PerkinElmer). Both fluorescence and luminescence were read using a BioTek Synergy Hybrid Multi-Mode reader equipped with the software Gene5 v 2.0 (BioTek). The dose-response curve was generated by […] analysis with GraphPad Prism v9.4.0 (GraphPad Software).

**Q.** What does the source list for `Cc1c(C(=O)N[C@H](C(=O)OCC2CCOCC2)C(C)C)ccc2c1B(O)OC2` [AN15368]?
**A.** accumulation and conversion to cleaved product AN14667 [1]: conversion to the cleaved product in wild-type T. cruzi epimastigotes and amastigotes but not in the KO line; adverse events ([2]; 19 treated macaques, 60 day treatment period): No adverse events; healthy and T. cruzi-seronegative infants produced ([2]; female, rhesus monkey, in vivo, 2 years): 13

**Q.** What does the source list for `Cc1c(C(=O)NC(C(=O)OCc2ccc(F)c(F)c2)C(C)C)ccc2c1B(O)OC2` (centres unmarked) [AN14353]?
**A.** RNA-seq reads mapped to African green monkey ([3]; 0hpt): 60; RNA-seq reads mapped to T.cruzi CL Brener ([3]; 0hpt): 14; RNA-seq reads unmapped ([3]; 0hpt): 26; RNA-seq reads mapped to African green monkey ([3]; 6hpt): 63; RNA-seq reads mapped to T.cruzi CL Brener ([3]; 6hpt): 5; RNA-seq reads unmapped ([3]; 6hpt): 32; RNA-seq reads mapped to African green monkey ([3]; 12hpt): 62; RNA-seq reads mapped to T.cruzi CL Brener ([3]; 12hpt): 2; RNA-seq reads unmapped ([3]; 12hpt): 35; RNA-seq reads mapped to African green monkey ([3]; 24hpt): 77; RNA-seq reads mapped to T.cruzi CL Brener ([3]; 24hpt): 1; RNA-seq reads unmapped ([3]; 24hpt): 22; parasite mRNA relative to host cell mRNA ([3]; T. cruzi-infected Vero cells, 30 nM AN14353 or 5 uM benznidazole, from 6 hrs): marked and continuing reduction in parasite mRNA; IC50 ([4]; Strain 20290, DTU TcI): 3 nM; IC90 ([4]; Strain 20290, DTU TcI): 5 nM; IC50 ([4]; Strain 20392, DTU TcIV): 5 nM; IC90 ([4]; Strain 20392, DTU TcIV): 10 nM; IC50 ([4]; Strain ARC0704, DTU TcI): 3 nM; IC90 ([4]; Strain ARC0704, DTU TcI): 7 nM; IC50 ([4]; Strain CL, DTU TcVI): 6 nM; IC90 ([4]; Strain CL, DTU TcVI): 18 nM; IC50 ([4]; Strain Colombiana, DTU TcI): 7 nM; IC90 ([4]; Strain Colombiana, DTU TcI): 10 nM; IC50 ([4]; Strain M5631, DTU TcIII): 1 nM; IC90 ([4]; Strain M5631, DTU TcIII): 3 nM; IC50 ([4]; Strain Montalvania, DTU TcI): 1 nM; IC90 ([4]; Strain Montalvania, DTU TcI): 2 nM; IC50 ([4]; Strain Tul8, DTU TcII): 1 nM; IC90 ([4]; Strain Tul8, DTU TcII): 2 nM
